Results: patent US12258344B2, “Azaaromatic amide derivatives for the treatment of cancer” (SHENZHEN FORWARD PHARMACEUTICALS CO., LTD., priority 2019, dated 2025)

Legend:
Assay type in all cases: cell-based
BaF3 (EGFR-D770insSVD) = BaF3 (EGFR-D770insSVD) (Homo sapiens, UniProt P00533, DUP768-770, cells depend on it); assay: Test 2: BaF3 (EGFR-D770insSVD) cell proliferation test; details: 72 hours, Cell Titer-Glo, read-out: Test 2 - IC50
Procedure: Test 2: BaF3 (EGFR-D770insSVD) Cell Proliferation Test
BaF3 (EGFR-D770insSVD) was cultured in RPMI1640 medium containing 10% fetal bovine serum and 2 mM glutamine. The cells were grown at 37° C. in a humidified incubator with 5% CO2.
(§1) The number of viable cells in the culture was measured according to the protocol described in Promega's Cell Titer-Glo Luminescent cell Viability Assay (Promega catalog number #G7570). 90 μl of cells (3,000 cells/well) were cultured in growth medium in a Corning black transparent bottom 96-well plate, and cultured in a 5% CO2 humidified incubator at 37° C. overnight. The compound serially diluted in 100% DMSO was added to the cells using a pipette, and the cells were incubated for another 72 hours. 100 μl of the mixed Cell Titer-Glo reagent was added to the cells in the 96-well culture plate to lyse the cells and mix gently. Subsequently, the […] was detected on the Envision microplate detector to obtain the data of each compound. Finally, the data was input into a suitable software package (such as Prism) for curve fitting analysis.

BaF3 (EGFR-V769insASV) = BaF3 (EGFR-V769insASV) (Homo sapiens, UniProt P00533, DUP767-769, cells depend on it); assay: Test 4: BaF3 (EGFR-V769insASV) cell proliferation test; details: 72 hours, Cell Titer-Glo, read-out: Test 4 - IC50
Procedure: Test 4: BaF3 (EGFR-V769insASV) Cell Proliferation Test
BaF3 (EGFR-V769insASV) was cultured in RPMI1640 medium containing 10% fetal bovine serum and 2 mM glutamine. The cells were grown at 37° C. in a humidified incubator with 5% CO2.
as §1

BaF3 (EGFR-N771insH) = BaF3 (EGFR-N771insH) (Homo sapiens, UniProt P00533, INS771H, cells depend on it); assay: Test 5: BaF3 (EGFR-N771insH) cell proliferation test; details: 72 hours, Cell Titer-Glo, read-out: Test 5 - IC50
Procedure: Test 5: BaF3 (EGFR-N771insH) Cell Proliferation Test
BaF3 (EGFR-N771insH) was cultured in RPMI1640 medium containing 10% fetal bovine serum and 2 mM glutamine. The cells were grown at 37° C. in a humidified incubator with 5% CO2.
as §1

BaF3 (EGFR-D770insNPG) = BaF3 (EGFR-D770insNPG) (Homo sapiens, UniProt P00533, INS772GNP, cells depend on it); assay: Test 6: BaF3 (EGFR-D770insNPG) cell proliferation test; details: 72 hours, Cell Titer-Glo, read-out: Test 6 - IC50
Procedure: Test 6: BaF3 (EGFR-D770insNPG) Cell Proliferation Test
BaF3 (EGFR-D770insNPG) was cultured in RPMI1640 medium containing 10% fetal bovine serum and 2 mM glutamine. The cells were grown at 37° C. in a humidified incubator with 5% CO2.
as §1

BaF3 (HER2-P780insGSP) = BaF3 (HER2-P780insGSP) (Homo sapiens, UniProt P04626, DUP778-780, cells depend on it); assay: Test 10: BaF3 (HER2-P780insGSP) cell proliferation test; details: 72 hours, Cell Titer-Glo, read-out: Test 10 - IC50
Procedure: Test 10: BaF3 (HER2-P780insGSP) Cell Proliferation Test
BaF3 (HER2-P780insGSP) was cultured in RPMI1640 medium containing 10% fetal bovine serum and 2 mM glutamine. The cells were grown at 37° C. in a humidified incubator with 5% CO2.
as §1

BaF3 (EGFR-L861Q) = BaF3 (EGFR-L861Q) (Homo sapiens, UniProt P00533, L861Q, cells depend on it); assay: Test 8: BaF3 (EGFR-L861Q) cell proliferation test; details: 72 hours, Cell Titer-Glo, read-out: Test 8 - IC50
Procedure: Test 8: BaF3 (EGFR-L8610) Cell Proliferation Test
BaF3 (EGFR-L861Q) was cultured in RPMI1640 medium containing 10% fetal bovine serum and 2 mM glutamine. The cells were grown at 37° C. in a humidified incubator with 5% CO2.
as §1

BaF3 (HER2-A775insYVMA) = BaF3 (HER2-A775insYVMA) (Homo sapiens, UniProt P04626, DUP772-775, cells depend on it); assay: Test 9: BaF3 (HER2-A775insYVMA) cell proliferation test; details: 72 hours, Cell Titer-Glo, read-out: Test 9 - IC50
Procedure: Test 9: BaF3 (HER2-A775insYVMA) Cell Proliferation Test
BaF3 (HER2-A775insYVMA) was cultured in RPMI1640 medium containing 10% fetal bovine serum and 2 mM glutamine. The cells were grown at 37° C. in a humidified incubator with 5% CO2.
as §1

BaF3 (HER2-G776insVC) = BaF3 (HER2-G776insVC) (Homo sapiens, UniProt P04626, cells depend on it, form not given); assay: Test 11: BaF3 (HER2-G776insVC) cell proliferation test; details: 72 hours, Cell Titer-Glo, read-out: Test 11 - IC50
Procedure: Test 11: BaF3 (HER2-G776insVC) Cell Proliferation Test
The engineered cell line BaF3 (HER2-G776insVC) was constructed by the inventor himself (for the method of cell line construction, see Jingrui Jiang et al., Cancer Res. 2005 Oct. 1; 65 (19): 8964-74; Jacqulyne P. Robichaux et al., Nat Med. 2018 May; 24 (5): 638-646). BaF3 (HER2-G776insVC) was cultured in RPMI1640 medium containing 10% fetal bovine serum and 2 mM glutamine. The cells were grown at 37° C. in a humidified incubator with 5% CO2.
as §1

BaF3 (EGFR-S768I) = BaF3 (EGFR-S768I) (Homo sapiens, UniProt P00533, S768I, cells depend on it); assay: Test 7: BaF3 (EGFR-S768I) cell proliferation test; details: 72 hours, Cell Titer-Glo, read-out: Test 7 - IC50
Procedure: Test 7: BaF3 (EGFR-S768I) Cell Proliferation Test
BaF3 (EGFR-S768I) was cultured in RPMI1640 medium containing 10% fetal bovine serum and 2 mM glutamine. The cells were grown at 37° C. in a humidified incubator with 5% CO2.
as §1

BaF3 (EGFR-A763insFQEA) = BaF3 (EGFR-A763insFQEA) (Homo sapiens, UniProt P00533, INS763FQEA, cells depend on it); assay: Test 3: BaF3 (EGFR-A763insFQEA) cell proliferation test; details: 72 hours, Cell Titer-Glo, read-out: Test 3 - IC50
Procedure: Test 3: BaF3 (EGFR-A763insFOEA) Cell Proliferation Test
BaF3 (EGFR-A763insFQEA) was cultured in RPMI1640 medium containing 10% fetal bovine serum and 2 mM glutamine. The cells were grown at 37° C. in a humidified incubator with 5% CO2.
as §1

[1] = system: NCI-H1975 (EGFR L858R/T790M double mutant); assay: Test 1: EGFR L858R/T790M (EGFR double mutant) cell proliferation test; details: Homo sapiens; NCI-H1975 cells, 72 hours, Cell Titer-Glo
Procedure: Test 1: EGFR L858R/T790M (EGFR Double Mutant) Cell Proliferation Test
The human lung cell line NCI-H1975 (EGFR L858R/T790M double mutant) was obtained from the American Type Culture Collection. NCI-H1975 cells were cultured in RPMI1640 medium containing 10% fetal bovine serum and 2 mM glutamine. The cells were grown at 37° C. in a humidified incubator with 5% CO2.
as §1, with “(8,000” for “(3,000”

BaF3 (EGFR/D770insSVD) = target: T1, BaF3 (EGFR/D770insSVD) (Homo sapiens, UniProt P00533, cells depend on it, form not given); assay: Test 13: EGFR exon 20 inserted D770insSVD cell proliferation test; details: A763insFQEA, V769insASV, D770insSVD (tests 13-15), in words
T1 construct: other: A763insFQEA, V769ins
Procedure: Test 13: EGFR Exon 20 Inserted D770insSVD Cell Proliferation Test
as §1

BaF3 (EGFR/S768I) = target: T2, BaF3 (EGFR/S768I) (Homo sapiens, UniProt P00533, cells depend on it, form not given); assay: Test 19: EGFR/S768I mutant cell line proliferation test; details: EGFR S768I and EGFR L861Q (tests 19-20), in words
T2 construct: other: EGFR S768I and EGFR L8
Procedure: Test 19: EGFR/S768I Mutant Cell Line Proliferation Test
as §1

Sequence of BaF3 (HER2-P780insGSP) (P04626 with tags, fused parts or gaps DUP778-780): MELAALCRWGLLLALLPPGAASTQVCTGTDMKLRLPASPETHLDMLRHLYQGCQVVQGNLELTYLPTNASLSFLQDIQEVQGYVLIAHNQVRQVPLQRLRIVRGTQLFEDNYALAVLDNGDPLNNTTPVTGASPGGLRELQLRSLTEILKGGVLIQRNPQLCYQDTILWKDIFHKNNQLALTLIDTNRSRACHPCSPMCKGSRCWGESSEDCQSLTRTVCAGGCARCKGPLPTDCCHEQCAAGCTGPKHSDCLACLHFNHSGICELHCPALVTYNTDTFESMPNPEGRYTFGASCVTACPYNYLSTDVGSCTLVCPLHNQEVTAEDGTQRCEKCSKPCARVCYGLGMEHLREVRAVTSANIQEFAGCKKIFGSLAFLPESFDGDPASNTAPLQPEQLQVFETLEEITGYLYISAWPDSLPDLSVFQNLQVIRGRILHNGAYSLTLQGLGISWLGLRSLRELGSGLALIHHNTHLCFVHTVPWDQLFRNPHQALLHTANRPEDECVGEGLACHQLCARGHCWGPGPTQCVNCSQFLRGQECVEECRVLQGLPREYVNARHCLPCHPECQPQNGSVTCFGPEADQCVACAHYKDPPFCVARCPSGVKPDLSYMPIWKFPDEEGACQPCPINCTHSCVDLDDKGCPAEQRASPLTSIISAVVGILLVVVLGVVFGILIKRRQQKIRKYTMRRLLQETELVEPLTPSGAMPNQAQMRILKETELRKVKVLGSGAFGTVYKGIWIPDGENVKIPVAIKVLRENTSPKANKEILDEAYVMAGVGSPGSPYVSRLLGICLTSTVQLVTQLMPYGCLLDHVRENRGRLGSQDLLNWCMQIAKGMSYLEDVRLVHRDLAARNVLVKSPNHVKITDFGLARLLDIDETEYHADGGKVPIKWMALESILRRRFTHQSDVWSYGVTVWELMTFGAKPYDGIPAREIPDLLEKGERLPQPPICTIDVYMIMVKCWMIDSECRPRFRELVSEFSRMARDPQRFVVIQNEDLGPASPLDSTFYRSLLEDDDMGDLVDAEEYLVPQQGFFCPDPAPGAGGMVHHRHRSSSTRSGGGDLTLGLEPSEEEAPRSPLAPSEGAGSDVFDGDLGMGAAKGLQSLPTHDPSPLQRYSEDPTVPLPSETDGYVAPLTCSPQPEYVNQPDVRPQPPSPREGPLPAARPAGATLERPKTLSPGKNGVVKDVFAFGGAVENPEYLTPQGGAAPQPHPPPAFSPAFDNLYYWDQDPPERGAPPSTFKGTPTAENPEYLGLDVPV
Sequence of BaF3 (HER2-G776insVC) (P04626 with tags, fused parts or gaps DELINS776-776VC): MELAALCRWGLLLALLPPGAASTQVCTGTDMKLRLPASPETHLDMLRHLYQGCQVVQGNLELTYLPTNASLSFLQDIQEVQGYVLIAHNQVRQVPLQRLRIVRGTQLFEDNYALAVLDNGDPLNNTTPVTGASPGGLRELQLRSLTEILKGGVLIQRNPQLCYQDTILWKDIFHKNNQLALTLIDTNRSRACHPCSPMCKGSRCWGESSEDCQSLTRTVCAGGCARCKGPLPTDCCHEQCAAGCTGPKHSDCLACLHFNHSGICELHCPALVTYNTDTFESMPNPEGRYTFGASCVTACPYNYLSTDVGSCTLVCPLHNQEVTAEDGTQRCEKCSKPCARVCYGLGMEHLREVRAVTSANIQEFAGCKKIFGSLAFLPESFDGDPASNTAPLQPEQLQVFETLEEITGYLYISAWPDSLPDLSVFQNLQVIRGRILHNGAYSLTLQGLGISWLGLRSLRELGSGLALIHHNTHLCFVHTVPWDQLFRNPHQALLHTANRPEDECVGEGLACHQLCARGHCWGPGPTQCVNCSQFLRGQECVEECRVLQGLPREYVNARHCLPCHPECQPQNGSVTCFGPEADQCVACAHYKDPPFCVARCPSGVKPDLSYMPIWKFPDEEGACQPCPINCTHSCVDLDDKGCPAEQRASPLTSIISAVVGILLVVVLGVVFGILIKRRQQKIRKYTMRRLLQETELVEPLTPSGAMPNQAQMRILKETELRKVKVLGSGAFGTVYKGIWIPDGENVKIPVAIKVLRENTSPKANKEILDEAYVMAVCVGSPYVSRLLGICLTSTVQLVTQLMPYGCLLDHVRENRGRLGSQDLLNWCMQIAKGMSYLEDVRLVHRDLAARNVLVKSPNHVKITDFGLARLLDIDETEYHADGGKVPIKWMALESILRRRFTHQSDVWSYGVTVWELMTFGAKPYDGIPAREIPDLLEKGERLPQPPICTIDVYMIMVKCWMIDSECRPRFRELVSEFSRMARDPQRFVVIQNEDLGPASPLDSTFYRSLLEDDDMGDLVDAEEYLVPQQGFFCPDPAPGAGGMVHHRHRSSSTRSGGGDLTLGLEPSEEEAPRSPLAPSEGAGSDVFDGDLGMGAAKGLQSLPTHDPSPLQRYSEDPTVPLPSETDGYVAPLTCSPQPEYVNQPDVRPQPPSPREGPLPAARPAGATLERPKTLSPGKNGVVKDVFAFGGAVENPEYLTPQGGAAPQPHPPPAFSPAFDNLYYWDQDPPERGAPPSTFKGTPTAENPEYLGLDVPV
Sequence of BaF3 (HER2-A775insYVMA) (P04626 with tags, fused parts or gaps DUP772-775): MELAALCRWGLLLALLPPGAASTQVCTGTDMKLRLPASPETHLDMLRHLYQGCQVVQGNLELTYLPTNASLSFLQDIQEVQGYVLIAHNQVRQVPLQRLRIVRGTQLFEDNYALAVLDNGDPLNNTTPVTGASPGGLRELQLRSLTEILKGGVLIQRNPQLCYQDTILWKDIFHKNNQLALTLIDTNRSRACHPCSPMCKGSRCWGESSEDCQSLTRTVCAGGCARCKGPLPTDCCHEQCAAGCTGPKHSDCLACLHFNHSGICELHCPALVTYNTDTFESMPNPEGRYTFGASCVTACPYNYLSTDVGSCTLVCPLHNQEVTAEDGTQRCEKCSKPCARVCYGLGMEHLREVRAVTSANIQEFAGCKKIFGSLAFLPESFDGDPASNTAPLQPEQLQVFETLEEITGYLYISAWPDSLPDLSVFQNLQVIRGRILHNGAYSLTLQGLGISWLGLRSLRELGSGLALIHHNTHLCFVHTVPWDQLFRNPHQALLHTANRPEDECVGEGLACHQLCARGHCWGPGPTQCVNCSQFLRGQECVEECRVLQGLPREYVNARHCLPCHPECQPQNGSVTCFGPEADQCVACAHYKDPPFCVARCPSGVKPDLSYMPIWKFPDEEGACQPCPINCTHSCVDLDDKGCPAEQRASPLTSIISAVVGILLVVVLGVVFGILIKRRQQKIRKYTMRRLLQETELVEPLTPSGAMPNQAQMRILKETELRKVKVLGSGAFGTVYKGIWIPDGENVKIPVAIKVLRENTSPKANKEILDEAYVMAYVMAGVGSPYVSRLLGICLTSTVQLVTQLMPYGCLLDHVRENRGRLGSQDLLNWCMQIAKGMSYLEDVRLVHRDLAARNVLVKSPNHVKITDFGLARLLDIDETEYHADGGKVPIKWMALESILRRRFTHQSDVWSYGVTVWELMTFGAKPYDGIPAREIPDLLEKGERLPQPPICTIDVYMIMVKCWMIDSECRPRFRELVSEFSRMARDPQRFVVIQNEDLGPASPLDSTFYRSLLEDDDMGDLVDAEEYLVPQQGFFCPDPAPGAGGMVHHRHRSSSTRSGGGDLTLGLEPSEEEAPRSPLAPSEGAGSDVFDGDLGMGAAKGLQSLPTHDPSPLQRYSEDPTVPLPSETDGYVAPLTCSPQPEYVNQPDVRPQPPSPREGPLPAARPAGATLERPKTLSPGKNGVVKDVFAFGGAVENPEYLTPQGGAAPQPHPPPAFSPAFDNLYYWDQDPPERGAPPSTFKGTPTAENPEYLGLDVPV

Compound | GI50 (BaF3 (EGFR-D770insSVD)) | GI50 (BaF3 (EGFR-V769insASV)) | GI50 (BaF3 (EGFR-N771insH)) | GI50 (BaF3 (EGFR-D770insNPG)) | GI50 (BaF3 (HER2-P780insGSP)) | GI50 (BaF3 (EGFR-L861Q)) | GI50 (BaF3 (HER2-A775insYVMA)) | GI50 (BaF3 (HER2-G776insVC)) | GI50 (BaF3 (EGFR-S768I)) | GI50 (BaF3 (EGFR-A763insFQEA)) | IC50 [1] | cell activity compared with Osimertinib (AZD9291) against EGFR exon 20 insertion mutations (BaF3 (EGFR/D770insSVD)) | activity compared with Osimertinib (AZD9291) against EGFR S768I and EGFR L861Q mutations (BaF3 (EGFR/S768I))
C=CC(=O)Nc1cc(Nc2ncnc(Oc3ccc(Cl)c(OC)c3)n2)c(OC)cc1N(C)CCN(C)C [Example 12] | 183 nM | 121 nM | 82.5 nM | 75.3 nM | 47.8 nM | 17.2 nM | 98.2 nM | 11.4 nM | 29.4 nM | 57.3 nM | 66.3 nM |  | 
C=CC(=O)Nc1cc(Nc2ncnc(Oc3ccc(Cl)c(OC)c3)n2)c(OC(F)F)cc1N(C)CCN(C)C [Example 13] | 88.7 nM | 88.6 nM | 35.6 nM | 40.9 nM | 29.6 nM | 10.8 nM | 85.2 nM | 8.36 nM | 13.6 nM | 43.1 nM | 42.1 nM |  | 
C=CC(=O)Nc1cc(Nc2ncnc(-c3cn(C)c4cc(Cl)c(OC)cc34)n2)c(OC)cc1N(C)CCN(C)C [Example 10] | 566 nM | 466 nM | 146 nM | 181 nM | 32.6 nM | 36.1 nM | 45.2 nM | 9.56 nM | 44.5 nM | 183 nM | 183 nM | significant superior cell activity over Osimertinib (AZD9291) | 
C=CC(=O)Nc1cc(Nc2nccc(-c3cn(C)c4ccccc34)n2)c(OCC(F)(F)F)nc1N(C)CCN(C)C.CS(=O)(=O)O [Compound 31] |  |  |  |  |  |  |  |  |  |  |  |  | superior activity over Osimertinib (AZD9291)
C=CC(=O)Nc1cc(Nc2ncnc(-c3cn(C)c4ccc(Cl)cc34)n2)c(OC)cc1N(C)CCN(C)C [Example 9] | 48.7 nM | 45.5 nM | 15.3 nM | 12.8 nM | 7.59 nM | 5.01 nM | 13.9 nM | 1.8 nM | 9.17 nM | 14.3 nM | 15.3 nM |  | 
C=CC(=O)Nc1cc(Nc2ncnc(-c3cn(C)c4ccc(OC)cc34)n2)c(OC)cc1N(C)CCN(C)C [Example 8, N-(2-((2-(dimethylamino)ethyl)(methyl)amino)-4-methoxy-5-((4-(5-methoxy-1-methyl-1H-indol-3-yl)-1,3,5-triazin-2-yl)amino)phenyl)acrylamide] | 30 nM | 57.6 nM | 18.2 nM | 22.8 nM | 11.6 nM | 5.82 nM | 21.8 nM | 2.73 nM | 7.82 nM | 16.6 nM | 39.6 nM |  | 
C=CC(=O)Nc1cc(Nc2nccc(-c3cn(C)c4ccccc34)n2)c(OCC(F)(F)F)nc1N(C)CCN(C)C.Cl [Compound 32] |  |  |  |  |  |  |  |  |  |  |  |  | superior activity over Osimertinib (AZD9291)
